Measurements: PubChem BioAssay (NCI)
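Grown in 96-well plates, cells were treated for 48 hours with each compound at five concentrations. Insufficient inhibition: endpoint recorded as highest concentration tested. TGI denotes the concentration required for complete inhibition of growth.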

Tests used:
Experiment in all cases: DTP human tumour cell line panel, 48 h
HL-60(TB) leukemia = tested on: HL-60(TB) leukemia
UACC-62 melanoma = tested on: UACC-62 melanoma
HS 578T breast = tested on: HS 578T breast
M14 melanoma = tested on: M14 melanoma
A498 renal = tested on: A498 renal
HT29 colon = tested on: HT29 colon
HOP-92 NSCLC = tested on: HOP-92 NSCLC
CCRF-CEM leukemia = tested on: CCRF-CEM leukemia
OVCAR-3 ovarian = tested on: OVCAR-3 ovarian
MCF7 breast = tested on: MCF7 breast
ACHN renal = tested on: ACHN renal
SK-MEL-5 melanoma = tested on: SK-MEL-5 melanoma
OVCAR-8 ovarian = tested on: OVCAR-8 ovarian
MALME-3M melanoma = tested on: MALME-3M melanoma
U251 CNS = tested on: U251 CNS
SF-268 CNS = tested on: SF-268 CNS
SNB-75 CNS = tested on: SNB-75 CNS
EKVX NSCLC = tested on: EKVX NSCLC
SNB-19 CNS = tested on: SNB-19 CNS
HOP-62 NSCLC = tested on: HOP-62 NSCLC
K-562 leukemia = tested on: K-562 leukemia
UACC-257 melanoma = tested on: UACC-257 melanoma
MOLT-4 leukemia = tested on: MOLT-4 leukemia
DU-145 prostate = tested on: DU-145 prostate
HCT-15 colon = tested on: HCT-15 colon
IGROV1 ovarian = tested on: IGROV1 ovarian
OVCAR-4 ovarian = tested on: OVCAR-4 ovarian
HCC-2998 colon = tested on: HCC-2998 colon
PC-3 prostate = tested on: PC-3 prostate
CAKI-1 renal = tested on: CAKI-1 renal
SR leukemia = tested on: SR leukemia
NCI-H23 lung = tested on: NCI-H23 lung
MDA-MB-231 breast = tested on: MDA-MB-231 breast
SK-MEL-28 melanoma = tested on: SK-MEL-28 melanoma
KM12 colon = tested on: KM12 colon
SF-295 CNS = tested on: SF-295 CNS
LOX IMVI melanoma = tested on: LOX IMVI melanoma
SW-620 colon = tested on: SW-620 colon
T-47D breast = tested on: T-47D breast
SK-MEL-2 melanoma = tested on: SK-MEL-2 melanoma
COLO 205 colon = tested on: COLO 205 colon
A549 NSCLC = tested on: A549 NSCLC
OVCAR-5 ovarian = tested on: OVCAR-5 ovarian
SK-OV-3 ovarian = tested on: SK-OV-3 ovarian
HCT-116 colon = tested on: HCT-116 colon
SN12C renal = tested on: SN12C renal
RXF 393 renal = tested on: RXF 393 renal
786-0 renal = tested on: 786-0 renal
NCI-H522 lung = tested on: NCI-H522 lung
NCI-H460 lung = tested on: NCI-H460 lung
NCI/ADR-RES ovarian = tested on: NCI/ADR-RES ovarian
TK-10 renal = tested on: TK-10 renal
UO-31 renal = tested on: UO-31 renal
RPMI-8226 leukemia = tested on: RPMI-8226 leukemia
NCI-H226 lung = tested on: NCI-H226 lung

SMILES: COc1ccccc1C1C2=C(COC2=O)OC(C)(C)Oc2cc3c(cc21)OCO3 (stereo not given)
- TGI (HL-60(TB) leukemia): 7.8 µM
- TGI (UACC-62 melanoma): > 25.4 µM
- TGI (HS 578T breast): > 100 µM
- TGI (M14 melanoma): > 85.1 µM
- TGI (A498 renal): 24.7 µM
- TGI (HT29 colon): 17.3 µM
- TGI (HOP-92 NSCLC): > 61.5 µM
- TGI (CCRF-CEM leukemia): > 100 µM
- TGI (OVCAR-3 ovarian): 13.3 µM
- TGI (MCF7 breast): > 31 µM
- TGI (ACHN renal): > 94.1 µM
- TGI (SK-MEL-5 melanoma): 21 µM
- TGI (OVCAR-8 ovarian): > 100 µM
- TGI (MALME-3M melanoma): > 100 µM
- TGI (U251 CNS): > 89.3 µM
- TGI (SF-268 CNS): 98.1 µM
- TGI (SNB-75 CNS): 8.42 µM
- TGI (EKVX NSCLC): 26.7 µM
- TGI (SNB-19 CNS): 58.2 µM
- TGI (HOP-62 NSCLC): > 65.4 µM
- TGI (K-562 leukemia): 12.8 µM
- TGI (UACC-257 melanoma): > 51.4 µM
- TGI (MOLT-4 leukemia): > 100 µM
- TGI (DU-145 prostate): > 100 µM
- TGI (HCT-15 colon): > 100 µM
- TGI (IGROV1 ovarian): > 87.1 µM
- TGI (OVCAR-4 ovarian): > 100 µM
- TGI (HCC-2998 colon): > 100 µM
- TGI (PC-3 prostate): > 29.7 µM
- TGI (CAKI-1 renal): > 29.8 µM
- TGI (SR leukemia): > 100 µM
- TGI (NCI-H23 lung): > 59.2 µM
- TGI (MDA-MB-231 breast): > 32.6 µM
- TGI (SK-MEL-28 melanoma): 72.1 µM
- TGI (KM12 colon): 11.4 µM
- TGI (SF-295 CNS): > 45.6 µM
- TGI (LOX IMVI melanoma): > 44.2 µM
- TGI (SW-620 colon): > 49.8 µM
- TGI (T-47D breast): > 100 µM
- TGI (SK-MEL-2 melanoma): > 73.7 µM
- TGI (COLO 205 colon): 7.5 µM
- TGI (A549 NSCLC): > 100 µM
- TGI (OVCAR-5 ovarian): > 100 µM
- TGI (SK-OV-3 ovarian): > 100 µM
- TGI (HCT-116 colon): > 36.1 µM
- TGI (SN12C renal): > 91.9 µM
- TGI (RXF 393 renal): 4.87 µM
- TGI (786-0 renal): > 68.8 µM
- TGI (NCI-H522 lung): > 32 µM
- TGI (NCI-H460 lung): > 40.3 µM
- TGI (NCI/ADR-RES ovarian): > 30.8 µM
- TGI (TK-10 renal): > 28.8 µM
- TGI (UO-31 renal): > 100 µM
- TGI (RPMI-8226 leukemia): > 60.7 µM
- TGI (NCI-H226 lung): > 24.8 µM
